Reference: PubChem BioAssay (NCI)
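Where inhibition never reached the appropriate level, the endpoint shown equals the highest concentration tested. Otherwise, values were interpolated linearly from a five-concentration, 48-hour dose response in 96-well plates. At the TGI there is no net growth.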

How the values were obtained:
Experiment in all cases: NCI-60 cell line screen, 48 h
SN12C renal = system: SN12C renal
786-0 renal = system: 786-0 renal
A549 NSCLC = system: A549 NSCLC
EKVX NSCLC = system: EKVX NSCLC
HT29 colon = system: HT29 colon
HCT-116 colon = system: HCT-116 colon
OVCAR-3 ovarian = system: OVCAR-3 ovarian
SF-268 CNS = system: SF-268 CNS
NCI-H226 lung = system: NCI-H226 lung
MCF7 breast = system: MCF7 breast

O=c1c2ncn(C3CCCCO3)c2n(-c2ccccc2)c(=S)n1-c1ccccc1 (configuration not stated)
TGI (SN12C renal): > 100 µM | TGI (786-0 renal): > 86.2 µM | TGI (A549 NSCLC): > 100 µM | TGI (EKVX NSCLC): > 87.9 µM | TGI (HT29 colon): > 100 µM | TGI (HCT-116 colon): > 100 µM | TGI (OVCAR-3 ovarian): > 81.3 µM | TGI (SF-268 CNS): > 92.2 µM | TGI (NCI-H226 lung): 86.2 µM | TGI (MCF7 breast): > 100 µM

O=c1[nH]nc(-c2ccc([N+](=O)[O-])cc2)n1/N=C/c1ccc([N+](=O)[O-])cc1
TGI (SN12C renal): > 100 µM | TGI (786-0 renal): > 100 µM | TGI (A549 NSCLC): > 100 µM | TGI (EKVX NSCLC): > 100 µM | TGI (HT29 colon): > 100 µM | TGI (HCT-116 colon): > 100 µM | TGI (OVCAR-3 ovarian): > 100 µM | TGI (SF-268 CNS): > 100 µM | TGI (NCI-H226 lung): > 100 µM | TGI (MCF7 breast): > 100 µM

CCOP(=O)(CC1CC(O)(CNc2cc(Cl)nc(N)n2)C1)OCC (configuration not stated)
TGI (SN12C renal): > 100 µM | TGI (786-0 renal): > 100 µM | TGI (A549 NSCLC): > 100 µM | TGI (EKVX NSCLC): > 100 µM | TGI (HT29 colon): > 100 µM | TGI (HCT-116 colon): > 100 µM | TGI (OVCAR-3 ovarian): > 100 µM | TGI (SF-268 CNS): > 100 µM | TGI (NCI-H226 lung): > 100 µM | TGI (MCF7 breast): > 100 µM

COc1ccc(-c2cc(C3CC3)nc(SCC(=O)O)c2C#N)cc1
TGI (SN12C renal): > 100 µM | TGI (786-0 renal): > 100 µM | TGI (A549 NSCLC): > 100 µM | TGI (EKVX NSCLC): > 100 µM | TGI (HT29 colon): > 100 µM | TGI (HCT-116 colon): > 100 µM | TGI (OVCAR-3 ovarian): > 100 µM | TGI (SF-268 CNS): > 100 µM | TGI (NCI-H226 lung): > 100 µM | TGI (MCF7 breast): > 100 µM

CCCN=C1Nc2ccccc2[C@@H]2N(C)c3ccccc3C(C)C[C@]12C (some centres not stated)
TGI (SN12C renal): > 100 µM | TGI (786-0 renal): 33.9 µM | TGI (A549 NSCLC): > 100 µM | TGI (EKVX NSCLC): > 100 µM | TGI (HT29 colon): 27.8 µM | TGI (HCT-116 colon): 30.4 µM | TGI (OVCAR-3 ovarian): 54.1 µM | TGI (SF-268 CNS): 54.6 µM | TGI (NCI-H226 lung): 73.4 µM | TGI (MCF7 breast): 49.3 µM

CCN(CC)c1ccc(/C=c2\nc(-c3ccccc3)n3c2nc2ccccc23)cc1
TGI (SN12C renal): > 100 µM | TGI (786-0 renal): > 100 µM | TGI (A549 NSCLC): > 100 µM | TGI (EKVX NSCLC): 35.4 µM | TGI (HT29 colon): 5.98 µM | TGI (HCT-116 colon): 18.8 µM | TGI (OVCAR-3 ovarian): > 100 µM | TGI (SF-268 CNS): > 100 µM | TGI (NCI-H226 lung): 60.5 µM | TGI (MCF7 breast): > 100 µM

N#CCN1CCCCCc2ccccc21
TGI (SN12C renal): > 100 µM | TGI (786-0 renal): > 100 µM | TGI (A549 NSCLC): > 100 µM | TGI (EKVX NSCLC): > 100 µM | TGI (HT29 colon): > 100 µM | TGI (HCT-116 colon): > 100 µM | TGI (SF-268 CNS): > 100 µM | TGI (NCI-H226 lung): > 100 µM | TGI (MCF7 breast): > 100 µM

N#Cc1nc(C(F)(F)F)oc1N
TGI (SN12C renal): > 100 µM | TGI (786-0 renal): > 100 µM | TGI (A549 NSCLC): > 100 µM | TGI (EKVX NSCLC): > 100 µM | TGI (HT29 colon): > 100 µM | TGI (HCT-116 colon): > 100 µM | TGI (OVCAR-3 ovarian): > 100 µM | TGI (SF-268 CNS): > 100 µM | TGI (NCI-H226 lung): > 100 µM | TGI (MCF7 breast): > 100 µM

Cc1ccc(S(=O)(=O)Nc2nc3ccccc3c(=O)n2C2CCCCC2)cc1
TGI (SN12C renal): > 100 µM | TGI (786-0 renal): > 100 µM | TGI (A549 NSCLC): > 100 µM | TGI (EKVX NSCLC): > 100 µM | TGI (HT29 colon): > 100 µM | TGI (HCT-116 colon): > 100 µM | TGI (OVCAR-3 ovarian): > 100 µM | TGI (SF-268 CNS): > 100 µM | TGI (NCI-H226 lung): > 100 µM | TGI (MCF7 breast): > 100 µM

CN(C)c1ccc(/C=N/n2c(-c3ccccc3)nc3ccccc3c2=O)cc1
TGI (SN12C renal): > 100 µM | TGI (786-0 renal): > 100 µM | TGI (A549 NSCLC): > 100 µM | TGI (EKVX NSCLC): > 100 µM | TGI (HT29 colon): > 100 µM | TGI (HCT-116 colon): > 100 µM | TGI (OVCAR-3 ovarian): > 100 µM | TGI (SF-268 CNS): > 100 µM | TGI (NCI-H226 lung): > 100 µM | TGI (MCF7 breast): > 100 µM

Nc1nc2cc(CNc3ccc(C(=O)O)cc3)ccc2nc1-c1ccccc1
TGI (SN12C renal): > 100 µM | TGI (786-0 renal): > 100 µM | TGI (A549 NSCLC): > 100 µM | TGI (HT29 colon): > 100 µM | TGI (HCT-116 colon): > 100 µM | TGI (OVCAR-3 ovarian): > 100 µM | TGI (SF-268 CNS): > 100 µM | TGI (NCI-H226 lung): > 100 µM | TGI (MCF7 breast): > 100 µM

C\C=C/C=C/C=C/C(=O)O
TGI (SN12C renal): > 100 µM | TGI (786-0 renal): > 100 µM | TGI (A549 NSCLC): > 100 µM | TGI (EKVX NSCLC): > 100 µM | TGI (HT29 colon): > 100 µM | TGI (HCT-116 colon): > 100 µM | TGI (OVCAR-3 ovarian): > 100 µM | TGI (SF-268 CNS): > 100 µM | TGI (NCI-H226 lung): > 100 µM

NNC(=O)Cc1cccnc1
TGI (SN12C renal): > 100 µM | TGI (786-0 renal): > 100 µM | TGI (A549 NSCLC): > 100 µM | TGI (EKVX NSCLC): > 100 µM | TGI (HT29 colon): > 100 µM | TGI (HCT-116 colon): > 100 µM | TGI (OVCAR-3 ovarian): > 100 µM | TGI (SF-268 CNS): > 100 µM | TGI (MCF7 breast): > 100 µM

NC(CCl)=NC1CN2CCC1CC2 (configuration not stated)
TGI (SN12C renal): > 100 µM | TGI (786-0 renal): > 100 µM | TGI (A549 NSCLC): > 100 µM | TGI (EKVX NSCLC): > 100 µM | TGI (HT29 colon): > 100 µM | TGI (HCT-116 colon): > 100 µM | TGI (OVCAR-3 ovarian): > 100 µM | TGI (SF-268 CNS): > 100 µM | TGI (NCI-H226 lung): > 100 µM | TGI (MCF7 breast): > 100 µM

COc1ccc2c(c1)C1Oc3ccccc3CC1(O)CO2 (configuration not stated)
TGI (SN12C renal): > 100 µM | TGI (786-0 renal): > 100 µM | TGI (A549 NSCLC): > 100 µM | TGI (EKVX NSCLC): > 100 µM | TGI (HT29 colon): > 100 µM | TGI (HCT-116 colon): > 100 µM | TGI (OVCAR-3 ovarian): > 100 µM | TGI (SF-268 CNS): > 100 µM | TGI (NCI-H226 lung): > 100 µM | TGI (MCF7 breast): > 100 µM

O=C1C(Cl)=C(Oc2ccc([N+](=O)[O-])cc2)C(=O)c2c(O)ccc(O)c21
TGI (SN12C renal): > 100 µM | TGI (786-0 renal): > 100 µM | TGI (A549 NSCLC): > 100 µM | TGI (EKVX NSCLC): > 100 µM | TGI (HT29 colon): > 83.1 µM | TGI (HCT-116 colon): > 100 µM | TGI (OVCAR-3 ovarian): > 100 µM | TGI (SF-268 CNS): > 100 µM | TGI (NCI-H226 lung): > 100 µM | TGI (MCF7 breast): > 100 µM

O=C1C(=Cc2ccco2)C(=O)C2CCCCC12 (configuration not stated)
TGI (SN12C renal): > 100 µM | TGI (786-0 renal): > 100 µM | TGI (A549 NSCLC): > 100 µM | TGI (EKVX NSCLC): > 100 µM | TGI (HT29 colon): > 100 µM | TGI (HCT-116 colon): > 100 µM | TGI (OVCAR-3 ovarian): > 100 µM | TGI (SF-268 CNS): > 100 µM | TGI (NCI-H226 lung): > 100 µM | TGI (MCF7 breast): > 100 µM

O=C1CSC(c2cccc(Cl)c2)N1c1c(O)c(Cl)cc(Br)c1Cl (configuration not stated)
TGI (SN12C renal): > 100 µM | TGI (786-0 renal): 71.7 µM | TGI (A549 NSCLC): > 100 µM | TGI (EKVX NSCLC): > 100 µM | TGI (HT29 colon): > 100 µM | TGI (HCT-116 colon): 28.8 µM | TGI (OVCAR-3 ovarian): 33.4 µM | TGI (SF-268 CNS): > 100 µM | TGI (NCI-H226 lung): > 100 µM | TGI (MCF7 breast): 29 µM

CCOC(O)C(F)(F)F (configuration not stated)
TGI (SN12C renal): > 100 µM | TGI (A549 NSCLC): > 100 µM | TGI (HT29 colon): > 100 µM | TGI (HCT-116 colon): > 100 µM | TGI (OVCAR-3 ovarian): > 100 µM | TGI (SF-268 CNS): > 100 µM | TGI (NCI-H226 lung): > 100 µM | TGI (MCF7 breast): > 100 µM

Fc1ccc(C2NC(=S)NC3=C2CCOc2c3ccc3ccccc23)cc1 (configuration not stated)
TGI (SN12C renal): > 100 µM | TGI (786-0 renal): > 100 µM | TGI (A549 NSCLC): > 100 µM | TGI (EKVX NSCLC): > 100 µM | TGI (HCT-116 colon): 30.1 µM | TGI (OVCAR-3 ovarian): > 100 µM | TGI (SF-268 CNS): > 100 µM | TGI (MCF7 breast): > 100 µM

COc1cc(CCNC2=CC(=O)c3cccnc3C2=O)ccc1O
TGI (SN12C renal): 2.43 µM | TGI (786-0 renal): 3.67 µM | TGI (A549 NSCLC): 3.27 µM | TGI (EKVX NSCLC): 11.5 µM | TGI (HT29 colon): 4.38 µM | TGI (HCT-116 colon): 4.8 µM | TGI (OVCAR-3 ovarian): 5.51 µM | TGI (SF-268 CNS): 7.7 µM | TGI (NCI-H226 lung): 3.53 µM | TGI (MCF7 breast): 1.3 µM

N#CN=C1c2ccccc2C(=NC#N)c2cc(CO)ccc21
TGI (SN12C renal): > 100 µM | TGI (786-0 renal): > 100 µM | TGI (A549 NSCLC): > 100 µM | TGI (EKVX NSCLC): > 100 µM | TGI (HT29 colon): > 100 µM | TGI (HCT-116 colon): > 100 µM | TGI (OVCAR-3 ovarian): > 100 µM | TGI (SF-268 CNS): > 100 µM | TGI (NCI-H226 lung): > 100 µM | TGI (MCF7 breast): 83.1 µM
